Source: patent US20240254115A1 (ACONDICIONAMIENTO TARRASENSE, priority 2021, published 2024)
Values belong to the compound of their own block, whether it stands above or below them.

Columns and labels:
[1] = biological target: T1, human σ2/TMEM97 receptor (Homo sapiens, UniProt Q5BJF2); assay: Binding assay to human σ2/TMEM97 receptor; conditions: transfected HEK-293 membranes, 10 nM [3H]-DTG, 25° C. 120 minutes; + may also stand for 1-50% inhibition at 1 or 10 μM; read-out: Binding σ-2 Ki
T1 construct: expressed in transfected cells; host or cells: HEK-293
Experimental: Binding Assay to Human σ2/TMEM97 Receptor
Transfected HEK-293 membranes (15 μg) were incubated with 10 nM [^3H]-1,3-Di-o-tolylguanidine (DTG) in assay buffer containing Tris-HCl 50 mM at pH 8.0. NSB (non-specific binding) was measured by adding 10 μM haloperidol. The binding of the test compound was measured at either one concentration (% inhibition at 1 or 10 μM) or five different concentrations to determine affinity values (Ki). Plates were incubated at 25° C. for 120 minutes. After the incubation period, the reaction mix was transferred to MultiScreen HTS, FC plates (Millipore), filtered and washed 3 times with ice-cold 10 mM Tris-HCL (pH 8.0). Filters were dried and counted at approximately 40% efficiency in a MicroBeta scintillation counter (Perkin-Elmer) using EcoScint liquid scintillation cocktail.

[2] = biological target: T2, human σ1 receptor (Homo sapiens, UniProt Q99720); assay: Human σ1 receptor radioligand assay; conditions: transfected HEK-293 membranes, 5 nM [3H](+)-pentazocine, 37° C. 120 minutes; + may also stand for 1-50% inhibition at 1 or 10 μM; read-out: Binding σ-1 Ki
T2 construct: expressed in transfected cells; host or cells: HEK-293
Experimental: Human σ1 Receptor Radioligand Assay
Transfected HEK-293 membranes (7 μg) were incubated with 5 nM of [^3H](+)-pentazocine in assay buffer containing Tris-HCl 50 mM at pH 8. NBS (non-specific binding) was measured by adding 10 μM haloperidol. The binding of the test compound was measured at either one concentration (% inhibition at 1 or 10 μM) or five different concentrations to determine affinity values (Ki). Plates were incubated at 37° C. for 120 minutes. After the incubation period, the reaction mix was then transferred to MultiScreen HTS, FC plates (Millipore), filtered and plates were washed 3 times with ice-cold 10 mM Tris-HCL (pH7.4). Filters were dried and counted at approximately 40% efficiency in a MicroBeta scintillation counter (Perkin-Elmer) using EcoScint liquid scintillation cocktail.

T2 sequence (Q99720 whole entry): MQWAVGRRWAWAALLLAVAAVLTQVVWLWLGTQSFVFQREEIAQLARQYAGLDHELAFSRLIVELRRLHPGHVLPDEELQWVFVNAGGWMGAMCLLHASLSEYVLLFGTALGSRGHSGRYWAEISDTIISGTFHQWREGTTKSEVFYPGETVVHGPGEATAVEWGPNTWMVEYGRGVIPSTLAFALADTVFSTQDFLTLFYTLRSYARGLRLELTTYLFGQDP
T1 sequence (Q5BJF2 whole entry): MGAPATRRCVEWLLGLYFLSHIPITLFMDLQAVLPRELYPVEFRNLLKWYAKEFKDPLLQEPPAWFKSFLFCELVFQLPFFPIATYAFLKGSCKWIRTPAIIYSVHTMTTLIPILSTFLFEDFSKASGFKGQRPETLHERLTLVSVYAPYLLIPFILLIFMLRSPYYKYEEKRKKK

Structure (SMILES): CN(Cc1ccncc1)[C@H]1CC[C@H](NS(=O)(=O)c2ccc(N3CCOCC3)nc2)CC1 [Example 60, N-((1r,4r)-4-(Methyl(pyridin-4-ylmethyl)amino)cyclohexyl)-6-morpholinopyridine-3-sulfonamide]
Ki [1]: 100 to 500 nM
Ki [2]: > 1000 nM

Structure (SMILES): O=S(=O)(c1ccc(N2CCOCC2)nc1)N1CCC[C@H](CNCc2ccc(O)nc2)C1 [Example 64, (R)-5-((((1-((6-Morpholinopyridin-3-yl)sulfonyl)piperidin-3-yl)methyl)amino)methyl)pyridin-2-ol]
Ki [1]: 100 to 500 nM
Ki [2]: > 1000 nM

Structure (SMILES): O=S(=O)(c1ccc(N2CCOCC2)nc1)N1CCC[C@@H](CNCc2ccc(O)nc2)C1 [Example 65, (S)-5-((((1-((6-Morpholinopyridin-3-yl)sulfonyl)piperidin-3-yl)methyl)amino)methyl)pyridin-2-ol]
Ki [1]: 100 to 500 nM
Ki [2]: > 1000 nM

Structure (SMILES): CC(C)(C)CCN1CCCC2(CCN(S(=O)(=O)c3ccc(N4CCC(F)(F)CC4)nc3)CC2)C1 [Example 76, 9-((6-(4,4-Difluoropiperidin-1-yl)pyridin-3-yl)sulfonyl)-2-(3,3-dimethylbutyl)-2,9-diazaspiro[5.5]undecane]
Ki [1]: < 100 nM
Ki [2]: < 100 nM

Structure (SMILES): CC(C)CCN1CCCC2(CCN(S(=O)(=O)c3ccc(N4CCC(F)(F)CC4)nc3)CC2)C1 [Example 77, 9-((6-(4,4-Difluoropiperidin-1-yl)pyridin-3-yl)sulfonyl)-2-isopentyl-2,9-diazaspiro[5.5]undecane]
Ki [1]: < 100 nM
Ki [2]: < 100 nM

Structure (SMILES): CC(C)(C)CCN1CCCC2(CCN(S(=O)(=O)c3ccc(N4CCC5(CCCO5)CC4)nc3)CC2)C1 [Example 78, 8-(5-((2-(3,3-Dimethylbutyl)-2,9-diazaspiro[5.5]undecan-9-yl)sulfonyl)pyridin-2-yl)-1-oxa-8-azaspiro[4.5]decane]
Ki [1]: < 100 nM
Ki [2]: < 100 nM

Structure (SMILES): CC(C)(C)CCN1CCC2(CC1)CCN(S(=O)(=O)c1ccc(N3CCOCC3)nc1)C2 [Example 79, 4-(5-((8-(3,3-Dimethylbutyl)-2,8-diazaspiro[4.5]decan-2-yl)sulfonyl)pyridin-2-yl)morpholine]
Ki [1]: < 100 nM
Ki [2]: 100 to 500 nM

Structure (SMILES): CC(C)(C)CCN1CCC2(CC1)CCN(S(=O)(=O)c1ccc(N3CCC(F)(F)CC3)nc1)C2 [Example 80, 2-((6-(4,4-Difluoropiperidin-1-yl)pyridin-3-yl)sulfonyl)-8-(3,3-dimethylbutyl)-2,8-diazaspiro[4.5]decane]
Ki [1]: < 100 nM
Ki [2]: < 100 nM

Structure (SMILES): CC(C)(C)CCN1CCC2(CC1)CCN(S(=O)(=O)c1ccc(N3CCC4(CCCO4)CC3)nc1)C2 [Example 81, 8-(5-((8-(3,3-Dimethylbutyl)-2,8-diazaspiro[4.5]decan-2-yl)sulfonyl)pyridin-2-yl)-1-oxa-8-azaspiro[4.5]decane]
Ki [1]: < 100 nM
Ki [2]: < 100 nM

Structure (SMILES): O=S(=O)(c1ccc(N2CCC(F)(F)CC2)nc1)N1CCC2(CCN(Cc3ccccc3)CC2)C1 [Example 82, 8-Benzyl-2-((6-(4,4-difluoropiperidin-1-yl)pyridin-3-yl)sulfonyl)-2,8-diazaspiro[4.5]decane]
Ki [1]: < 100 nM
Ki [2]: < 100 nM

Structure (SMILES): O=S(=O)(c1ccc(N2CCC(F)(F)CC2)nc1)N1CCC2(CCN(CC3CCOCC3)CC2)C1 [Example 83, 2-((6-(4,4-Difluoropiperidin-1-yl)pyridin-3-yl)sulfonyl)-8-((tetrahydro-2H-pyran-4-yl)methyl)-2,8-diazaspiro[4.5]decane]
Ki [1]: < 100 nM
Ki [2]: < 100 nM

Structure (SMILES): O=S(=O)(c1ccc(N2CCC(F)(F)CC2)nc1)N1CCC2(CCCN(CC3CCOCC3)C2)CC1 [Example 84, 9-((6-(4,4-Difluoropiperidin-1-yl)pyridin-3-yl)sulfonyl)-2-((tetrahydro-2H-pyran-4-yl)methyl)-2,9-diazaspiro[5.5]undecane]
Ki [1]: 100 to 500 nM
Ki [2]: < 100 nM

Structure (SMILES): CC(C)(C)CN1CCCC2(CCN(S(=O)(=O)c3ccc(N4CCC(F)(F)CC4)nc3)CC2)C1 [Example 85, 9-((6-(4,4-Difluoropiperidin-1-yl)pyridin-3-yl)sulfonyl)-2-neopentyl-2,9-diazaspiro[5.5]undecane]
Ki [1]: 500 to 1000 nM
Ki [2]: < 100 nM

Structure (SMILES): CN(Cc1ccccc1)C1CCN(S(=O)(=O)c2ccc(N3CCC(F)(F)CC3)nc2)CC1 [Example 86, N-Benzyl-1-((6-(4,4-difluoropiperidin-1-yl)pyridin-3-yl)sulfonyl)-N-methylpiperidin-4-amine]
Ki [1]: < 100 nM
Ki [2]: < 100 nM

Structure (SMILES): CN(Cc1ccccc1)C1CCN(S(=O)(=O)c2ccc(N3CCC4(CCCO4)CC3)nc2)CC1 [Example 87, 1-((6-(1-Oxa-8-azaspiro[4.5]decan-8-yl)pyridin-3-yl)sulfonyl)-N-benzyl-N-methylpiperidin-4-amine]
Ki [1]: < 100 nM
Ki [2]: > 1000 nM

Continued, values first:

Ki [1]: < 100 nM
Ki [2]: 100 to 500 nM
Structure (SMILES): O=S(=O)(c1ccc(N2CCOCC2)nc1)N1CCCC2(CCN(Cc3ccccc3)CC2)C1 [Example 61, 4-(5-((9-Benzyl-2,9-diazaspiro[5.5]undecan-2-yl)sulfonyl)pyridin-2-yl)morpholine]

Ki [1]: < 100 nM
Ki [2]: 100 to 500 nM
Structure (SMILES): N#Cc1ccc(CN2CCC3(CCCN(S(=O)(=O)c4ccc(N5CCOCC5)nc4)C3)CC2)cc1F [Example 62, 2-Fluoro-4-((2-((6-morpholinopyridin-3-yl)sulfonyl)-2,9-diazaspiro[5.5]undecan-9-yl)methyl)benzonitrile]

Ki [1]: < 100 nM
Ki [2]: 100 to 500 nM
Structure (SMILES): O=S(=O)(c1ccc(N2CCOCC2)nc1)N1CCCC2(CCN(Cc3ccncc3)CC2)C1 [Example 63, 4-(5-((9-(Pyridin-4-ylmethyl)-2,9-diazaspiro[5.5]undecan-2-yl)sulfonyl)pyridin-2-yl)morpholine]

Ki [1]: < 100 nM
Ki [2]: < 100 nM
Structure (SMILES): CC(C)(C)CCN1CCC2(CC1)CCN(S(=O)(=O)c1ccc(C(F)(F)F)nc1)CC2 [Example 66, 3-(3,3-Dimethylbutyl)-9-((6-(trifluoromethyl)pyridin-3-yl)sulfonyl)-3,9-diazaspiro[5.5]undecane]

Ki [1]: < 100 nM
Ki [2]: < 100 nM
Structure (SMILES): CC(C)(C)CCN1CCC2(CC1)CCN(S(=O)(=O)c1ccc(C(F)(F)F)nc1)C2 [Example 67, 8-(3,3-Dimethylbutyl)-2-((6-(trifluoromethyl)pyridin-3-yl)sulfonyl)-2,8-diazaspiro[4.5]decane]

Ki [1]: < 100 nM
Ki [2]: 100 to 500 nM
Structure (SMILES): CC(C)(C)CCN1CCC2(CC1)CCN(S(=O)(=O)c1ccc(N3CCC4(CCOC4)CC3)nc1)CC2 [Example 68, 8-(5-((9-(3,3-Dimethylbutyl)-3,9-diazaspiro[5.5]undecan-3-yl)sulfonyl)pyridin-2-yl)-2-oxa-8-azaspiro[4.5]decane]

Ki [1]: < 100 nM
Ki [2]: 100 to 500 nM
Structure (SMILES): CC(C)(C)CCN1CCC2(CC1)CCN(S(=O)(=O)c1ccc(N3CCS(=O)(=O)CC3)nc1)CC2 [Example 69, 4-(5-((9-(3,3-Dimethylbutyl)-3,9-diazaspiro[5.5]undecan-3-yl)sulfonyl)pyridin-2-yl)thiomorpholine 1,1-dioxide]

Ki [1]: < 100 nM
Ki [2]: < 100 nM
Structure (SMILES): CC(C)(C)CCN1CCC2(CC1)CCN(S(=O)(=O)c1ccc(N3CCC(F)(F)CC3)nc1)CC2 [Example 70, 3-((6-(4,4-Difluoropiperidin-1-yl)pyridin-3-yl)sulfonyl)-9-(3,3-dimethylbutyl)-3,9-diazaspiro[5.5]undecane]

Ki [1]: < 100 nM
Ki [2]: < 100 nM
Structure (SMILES): CC(C)(C)CCN1CCC2(CC1)CCN(S(=O)(=O)c1ccc(N3CCC4(CCCO4)CC3)nc1)CC2 [Example 71, 8-(5-((9-(3,3-Dimethylbutyl)-3,9-diazaspiro[5.5]undecan-3-yl)sulfonyl)pyridin-2-yl)-1-oxa-8-azaspiro[4.5]decane]

Ki [1]: < 100 nM
Ki [2]: 500 to 1000 nM
Structure (SMILES): CC(C)(C)CCN1CCC2(CC1)CCN(S(=O)(=O)c1ccc(N3CCC4(CC3)COC4)nc1)CC2 [Example 72, 7-(5-((9-(3,3-Dimethylbutyl)-3,9-diazaspiro[5.5]undecan-3-yl)sulfonyl)pyridin-2-yl)-2-oxa-7-azaspiro[3.5]nonane]

Ki [1]: < 100 nM
Ki [2]: 100 to 500 nM
Structure (SMILES): CC(C)CCN1CCC2(CC1)CCN(S(=O)(=O)c1ccc(N3CCC(F)(F)CC3)nc1)CC2 [Example 73, 3-((6-(4,4-Difluoropiperidin-1-yl)pyridin-3-yl)sulfonyl)-9-isopentyl-3,9-diazaspiro[5.5]undecane]

Ki [1]: < 100 nM
Ki [2]: 100 to 500 nM
Structure (SMILES): O=S(=O)(c1ccc(N2CCC(F)(F)CC2)nc1)N1CCC2(CCN(Cc3ccccc3)CC2)CC1 [Example 74, 3-Denzyl-9-((6-(4,4-difluoropiperidin-1-yl)pyridin-3-yl)sulfonyl)-3,9-diazaspiro[5.5]undecane]

Ki [1]: < 100 nM
Ki [2]: < 100 nM
Structure (SMILES): CC(C)(C)CCN1CCCC2(CCN(S(=O)(=O)c3ccc(N4CCOCC4)nc3)CC2)C1 [Example 75, 4-(5-((2-(3,3-Dimethylbutyl)-2,9-diazaspiro[5.5]undecan-9-yl)sulfonyl)pyridin-2-yl)morpholine]
